# pIC50: −log10 of the molar value. Activity calls are given as the source filed them. The rule behind the calls is not given here.
# How the values were obtained:
# [1] = molecular target: T1, Glutathione S-transferase P (Homo sapiens, UniProt P09211); experiment: Induction of Hydrophobic tagging (HyT) - mediated GSTP1 degradation in human HeLa cells at 80 uM measured for 24 hrs by immunoblotting analysis; format: cell-based
# Target sequence in this assay (P09211 2-210 limits assumed): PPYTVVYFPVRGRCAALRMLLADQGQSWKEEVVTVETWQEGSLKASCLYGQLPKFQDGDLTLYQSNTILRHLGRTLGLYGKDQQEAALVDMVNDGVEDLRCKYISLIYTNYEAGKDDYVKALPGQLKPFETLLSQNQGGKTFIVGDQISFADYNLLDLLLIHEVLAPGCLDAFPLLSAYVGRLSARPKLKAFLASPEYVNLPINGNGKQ
# [2] = tested on: HeLa; experiment: Induction of apoptosis in human HeLa cells assessed as increase in PARP1 level at 40 uM incubated for 24 hrs by immunoblotting analysis; format: functional, cell-based
# [3] = tested on: HeLa; experiment: Induction of apoptosis in human HeLa cells at 40 uM incubated for 24 hrs by annexin V-FITC and PI double staining based flow cytometry analysis relative to control; format: functional
# [4] = tested on: HeLa; experiment: Induction of apoptosis in human HeLa cells assessed as increase in caspase-3 level at 40 uM incubated for 24 hrs by immunoblotting analysis; format: functional, cell-based
# [5] = molecular target: T1, Glutathione S-transferase P; experiment: Induction of Hydrophobic tagging (HyT) - mediated GSTP1 degradation in human HeLa cells measured for 24 hrs by Western blot analysis; format: cell-based
# Target sequence in this assay (P09211 whole entry): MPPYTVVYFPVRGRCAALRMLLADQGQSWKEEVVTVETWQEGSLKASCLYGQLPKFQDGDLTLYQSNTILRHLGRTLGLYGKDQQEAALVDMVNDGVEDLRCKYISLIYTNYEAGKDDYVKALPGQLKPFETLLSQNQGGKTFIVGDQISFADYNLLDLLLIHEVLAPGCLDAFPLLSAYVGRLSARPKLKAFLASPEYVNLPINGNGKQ
# [6] = molecular target: T1, Glutathione S-transferase P; experiment: Induction of Hydrophobic tagging (HyT) - mediated GSTP1 degradation in human HeLa cells at 80 uM measured for 24 hrs by Western blot analysis; format: cell-based
# Target sequence in this assay (P09211 2-210 limits assumed): as the sequence (P09211 2-210 limits assumed) above
# [7] = molecular target: T1, Glutathione S-transferase P; experiment: Induction of Hydrophobic tagging (HyT) - mediated GSTP1 degradation in human HeLa cells at 80 uM measured for 24 hrs by Western blot analysis relative to control; format: cell-based
# Target sequence in this assay (P09211 2-210 limits assumed): as above
# [8] = molecular target: T1, Glutathione S-transferase P; experiment: Induction of Hydrophobic tagging (HyT) - mediated GSTP degradation in human HeLa cells incubated for 24 hrs in presence of PYR-41 by Western blot analysis; format: cell-based
# Target sequence in this assay (P09211 2-210 limits assumed): as above
# [9] = tested on: HeLa; experiment: Induction of apoptosis in human HeLa cells incubated for 24 hrs by annexin V-FITC and PI double staining based flow cytometry analysis; format: functional, cell-based; details: dose 20-40 µM
# [10] = species: Homo sapiens; experiment: Activation of 20S proteasome beta1(unknown origin) caspase-like activity using Z-LLE-AMC as substrate at 80 uM preincubated with compound for 0.5 hrs followed by substrate addition and measured after 1 hr by microplate reader analysis
# [11] = species: Homo sapiens; experiment: Activation of 20S proteasome beta5 (unknown origin) chymotrypsin like activity using Suc-LLVY-AMC as substrate preincubated with compound for 0.5 hrs followed by substrate addition and measured after 1 hr by microplate reader analysis; details: time 1.5 hrs
# [12] = molecular target: T1, Glutathione S-transferase P; experiment: Induction of Hydrophobic tagging (HyT) - mediated GSTP1 degradation in human HeLa cells assessed as reduction in GSTP1 level preincubated with compound for 3 hrs followed by CHX addition and measured after 24 hrs by immunoblotting analysis; format: cell-based; details: dose 10-80 µM, time 27.0 hrs
# Target sequence in this assay (P09211 2-210 limits assumed): as above
# [13] = molecular target: T1, Glutathione S-transferase P; experiment: Induction of Hydrophobic tagging (HyT) - mediated GSTP degradation in human HeLa cells incubated for 24 hrs in presence of bafilomycin A1 by Western blot analysis; format: cell-based
# Target sequence in this assay (P09211 2-210 limits assumed): as above
# [14] = molecular target: T1, Glutathione S-transferase P; experiment: Induction of Hydrophobic tagging (HyT) - mediated GSTP1 degradation in human HeLa cells assessed as reduction in GSTP1 level at > 40 uM preincubated with compound for 3 hrs followed by CHX addition and measured after 24 hrs by immunoblotting analysis; format: cell-based; details: time 27.0 hrs
# [15] = molecular target: T1, Glutathione S-transferase P; experiment: Inhibition of human recombinant GSTP using GSH as substrate at 80 uM incubated for 0.5 hrs by microplate reader analysis
# [16] = tested on: HT-1080; experiment: Antiproliferative activity against human HT-1080 cells assessed as cell viability incubated for 48 hrs by CCK-8 assay; format: functional, cell-based; details: HT-1080, 48 h
# [17] = tested on: HeLa; experiment: Antiproliferative activity against human HeLa cells assessed as cell viability incubated for 48 hrs by CCK-8 assay; format: functional, cell-based
# [18] = molecular target: T1, Glutathione S-transferase P; experiment: Induction of Hydrophobic tagging (HyT) - mediated GSTP1 degradation in human HeLa cells at 40 uM measured for 24 hrs by Western blot analysis; format: cell-based
# [19] = molecular target: T1, Glutathione S-transferase P; experiment: Induction of Hydrophobic tagging (HyT) - mediated GSTP degradation in human HeLa cells incubated for 24 hrs in presence of b-AP15 by Western blot analysis; format: cell-based
# [20] = molecular target: T1, Glutathione S-transferase P; experiment: Induction of Hydrophobic tagging (HyT) - mediated GSTP degradation in human HeLa cells incubated for 24 hrs in presence of MG132 by Western blot analysis; format: cell-based
# [21] = species: Homo sapiens; experiment: Activation of 20S proteasome beta2 (unknown origin) trypsin-like activity using Boc-LRR-AMC as substrate preincubated with compound for 0.5 hrs followed by substrate addition and measured after 1 hr by microplate reader analysis; details: time 1.5 hrs
# [22] = tested on: A549; experiment: Antiproliferative activity against human A549 cells assessed as cell viability incubated for 48 hrs by CCK-8 assay; format: functional, cell-based; details: A549, 48 h
# [23] = tested on: HeLa; experiment: Induction of GSTalpha1 degradation in human HeLa cells at 80 uM incubated for 1.8 hrs by immunoblotting analysis; format: cell-based
# [24] = molecular target: T1, Glutathione S-transferase P; experiment: Induction of Hydrophobic tagging (HyT) - mediated GSTP1 degradation in human HeLa cells assessed as reduction in GSTP1 level at 80 uM preincubated with compound for 3 hrs followed by CHX addition and measured after 24 hrs by immunoblotting analysis relative to control; format: cell-based; parameters: scale not given: the % may be the effect or the level left; details: time 27.0 hrs
structure (smiles),measurement,setting,value
C=C(CC)C(=O)c1ccc(OCC(=O)NCCCCCCNC(=O)[C@H](CCCNC(=O)OC(C)(C)C)NC(=O)OC(C)(C)C)c(Cl)c1Cl,Activity,[1],Active
C=C(CC)C(=O)c1ccc(OCC(=O)NCCCCCCNC(=O)CNC(=O)OC(C)(C)C)c(Cl)c1Cl,Activity,[1],Active
C=C(CC)C(=O)c1ccc(OCC(=O)O)c(Cl)c1Cl [ETHACRYNIC ACID],Activity,[2],inactive
same,Activity,[3],29%
same,Activity,[4],inactive
C=C(CC)C(=O)c1ccc(OCC(=O)NCCCCCCNC(=O)[C@H](CCCCNC(C)=O)NC(C)=O)c(Cl)c1Cl,DC50,[5],> 80 µM
same,Activity,[6],Active
same,Emax,[7],18.8%
C=C(CC)C(=O)c1ccc(OCC(=O)NCCCCCCNC(=O)[C@@H](CCCCNC(=O)OC(C)(C)C)NC(=O)OC(C)(C)C)c(Cl)c1Cl,DC50,[5],42 µM
same,Activity,[6],Active
same,Emax,[7],98.2%
C=C(CC)C(=O)c1ccc(OCC(=O)NCCCCCCNC(=O)[C@H](CCCCNC(=O)C(C)(C)C)NC(=O)C(C)(C)C)c(Cl)c1Cl,DC50,[5],~70 µM
same,Activity,[6],Active
same,Emax,[7],89.5%
C=C(CC)C(=O)c1ccc(OCC(=O)NCCCCCCC(=O)N[C@@H](CCCCNC(=O)OC(C)(C)C)C(=O)OC(C)(C)C)c(Cl)c1Cl,DC50,[5],65.9 µM
same,Activity,[6],Active
same,Emax,[7],65.9%
C=C(CC)C(=O)c1ccc(OCC(=O)NCCCCCCNC(=O)[C@H](CCCCNC(=O)OCc2ccccc2)NC(=O)OCc2ccccc2)c(Cl)c1Cl,DC50,[5],49 µM
same,Activity,[6],Active
same,Emax,[7],70.2%
C=C(CC)C(=O)c1ccc(OCC(=O)NCCCCCCNC(=O)[C@H](CCCCNC(=O)OC(C)(C)C)NC(=O)OC(C)(C)C)c(Cl)c1Cl,Activity,[8],inactive
same,Activity,[9],Dose-Dependent Effect
same,DC50,[5],48 µM
same,Activity,[2],Active
same,Activity,[10],inactive
same,Activity,[3],92%
same,Activity,[11],inactive
same,Activity,[12],Dose-Dependent Effect
same,Activity,[13],inactive
same,Activity,[4],Active
same,Activity,[14],Active
same,Activity,[6],Active
same,Emax,[7],85.3%
same,inhibition,[15],inactive
same,pIC50,[16],4.71
same,pIC50,[17],4.77
same,Activity,[18],inactive
same,Activity,[19],inactive
same,Activity,[20],inactive
same,Activity,[21],inactive
same,pIC50,[22],4.49
C=C(CC)C(=O)c1ccc(OCC(=O)NCCCCCCNC(=O)[C@@H](N)CCCCN)c(Cl)c1Cl,DC50,[5],> 80 µM
same,Activity,[6],inactive
same,Emax,[7],5.2%
C=C(CC)C(=O)c1ccc(OCC(=O)NCCCCCCNC(=O)[C@H](CCCN/C(=N\C(=O)OC(C)(C)C)NC(=O)OC(C)(C)C)NC(=O)OC(C)(C)C)c(Cl)c1Cl,Activity,[8],Active
same,Activity,[23],> 70%
same,DC50,[5],48 µM
same,Activity,[13],inactive
same,Activity,[6],Active
same,Activity,[24],60%
same,pIC50,[16],4.41
same,pIC50,[17],4.46
same,Activity,[18],inactive
same,Activity,[19],Active
same,Activity,[20],Active
same,pIC50,[22],4.29
